Laboratory results as given in patent publication US7557144B1, “Modulation of protein expression using carbocyclic aryl alkenoic acid derivatives” (The Johns Hopkins University, priority 2000, dated 2009).

Experiments:
Hsp70 = Hsp70 immunoblot of IB3-1 lysates; format: cell-based, human; settings: IB3-1 cells
Experimental: (§1) 3. Immunoblot analysis. Whole cell lysates were prepared by solubilization with 2% SDS at 95° C. Protein concentration in the lysates was determined using the Bio-Rad DC assay reagents with bovine plasma g-globulin as a standard (Bio-Rad Laboratories, Hercules, Calif.). Equal amounts of protein was resolved on 5, 7, 8, or 9% SDS-polyacrylamide gels. Proteins were transferred to nitrocellulose, and immunodetection was performed as previously described (25). Nonspecific binding was blocked by incubation of the nitrocellulose with 2% gelatin or 10% nonfat day milk. Primary antisera and secondary antibodies were applied in buffer containing 0.4% BSA overnight at 4° C. and for 1 h at room temperature, respectively. Detection of immunoreactivity was performed with the enhanced chemiluminescence reagent (ECL, Amer-sham) and fluorography. Recombinant bovine Hsc70 ([…]) was purchased from Stressgen Biotechnologies for use in constructing a standard curve of Hsc70 immunoreactivity. Immunoblots containing the bovine Hsc70 were probed with the Hsc70-specific polyclonal antiserum.
(§2) Whether 4-PBA would regulate expression of a number of other molecular chaperones in IB3-1 cells (FIG. 2) was assessed next. […] Hsp90 is required for correct folding and function of a number of cellular proteins (16). […] Hsp70 (Hsp72) expression is induced by heat shock and the presence of denatured proteins within the eukaryotic cell (16). In Escherichia coli, the Hsp70 homologue DnaK and the Hsp40 homologue DnaJ act to promote protein folding (16). Hdj2 is the member of the Hsp40 family that specifically interacts with and regulates the ATPase activity of Hsc70. Hdj2 also interacts with CFTR during CFTR translation (26).
FIGS. 2A-2E are more specifically explained as follows. […] IB3-1 cells were treated as described for FIG. 1. Immunoblotting with 5 μg of IB3-1 SDS lysate protein was performed as described in the foregoing General Comments.
FIGS. 5A-C are explained in more detail as follows. […] A: IB3-1 cells were incubated at 37° C. for 2 days under indicated conditions. Cellular homogenates were prepared in 2% SDS as described in METHODS, and 5 μg of total cellular protein were analyzed by immunoblot for Hsc70 using rabbit polyclonal antiserum, Hsp90, Hsp70, Hsp40 as described above under General Comments. Con, control. B and C: densitometric analysis of Hsc70 expression (B) and Hsp90, Hsp70, and Hsp40 expression (C) was performed as described for FIG. 1. B: means 6 SE of density in 4 independent experiments.

Hsp40 = Hsp40 immunoblot of IB3-1 lysates; format: cell-based, human; settings: IB3-1 cells, increasing concentrations of 4-PBA
Experimental: as §1, §2
FIGS. 2A-2E are more specifically explained as follows. […]
FIGS. 5A-C are explained in more detail as follows. […] Cellular homogenates were prepared in 2% SDS as described in METHODS, and 5 μg of total cellular protein were analyzed by immunoblot for Hsc70 using rabbit polyclonal antiserum, Hsp90, Hsp70, Hsp40 as described above under General Comments. […]

Hdj2 = Hdj2 immunoblot of IB3-1 lysates; format: cell-based, human; settings: IB3-1 cells, increasing concentrations of 4-PBA
Experimental: as §1
Whether 4-PBA would regulate expression of a number of other molecular chaperones in IB3-1 cells (FIG. 2) was assessed next. […] Hsp90 is required for correct folding and function of a number of cellular proteins (16). […]

Hsc70-CFTR complexes = target: T1, Hsc70-CFTR complexes (Homo sapiens, UniProt P11142+P13569, DEL508-508); assay: Immunoprecipitation of Hsc70-CFTR complexes from untreated IB3-1 cells with 4-PBA in lysis and wash buffers; format: binding; settings: 1 mM 4-PBA added to RIPA lysis and wash buffers
T1 construct: endogenous in cells; host or cells: IB3-1 (RIPA lysate, immunoprecipitated with anti-Hsc70 serum)
T1 sequence (P13569 with tags, fused parts or gaps DEL508-508): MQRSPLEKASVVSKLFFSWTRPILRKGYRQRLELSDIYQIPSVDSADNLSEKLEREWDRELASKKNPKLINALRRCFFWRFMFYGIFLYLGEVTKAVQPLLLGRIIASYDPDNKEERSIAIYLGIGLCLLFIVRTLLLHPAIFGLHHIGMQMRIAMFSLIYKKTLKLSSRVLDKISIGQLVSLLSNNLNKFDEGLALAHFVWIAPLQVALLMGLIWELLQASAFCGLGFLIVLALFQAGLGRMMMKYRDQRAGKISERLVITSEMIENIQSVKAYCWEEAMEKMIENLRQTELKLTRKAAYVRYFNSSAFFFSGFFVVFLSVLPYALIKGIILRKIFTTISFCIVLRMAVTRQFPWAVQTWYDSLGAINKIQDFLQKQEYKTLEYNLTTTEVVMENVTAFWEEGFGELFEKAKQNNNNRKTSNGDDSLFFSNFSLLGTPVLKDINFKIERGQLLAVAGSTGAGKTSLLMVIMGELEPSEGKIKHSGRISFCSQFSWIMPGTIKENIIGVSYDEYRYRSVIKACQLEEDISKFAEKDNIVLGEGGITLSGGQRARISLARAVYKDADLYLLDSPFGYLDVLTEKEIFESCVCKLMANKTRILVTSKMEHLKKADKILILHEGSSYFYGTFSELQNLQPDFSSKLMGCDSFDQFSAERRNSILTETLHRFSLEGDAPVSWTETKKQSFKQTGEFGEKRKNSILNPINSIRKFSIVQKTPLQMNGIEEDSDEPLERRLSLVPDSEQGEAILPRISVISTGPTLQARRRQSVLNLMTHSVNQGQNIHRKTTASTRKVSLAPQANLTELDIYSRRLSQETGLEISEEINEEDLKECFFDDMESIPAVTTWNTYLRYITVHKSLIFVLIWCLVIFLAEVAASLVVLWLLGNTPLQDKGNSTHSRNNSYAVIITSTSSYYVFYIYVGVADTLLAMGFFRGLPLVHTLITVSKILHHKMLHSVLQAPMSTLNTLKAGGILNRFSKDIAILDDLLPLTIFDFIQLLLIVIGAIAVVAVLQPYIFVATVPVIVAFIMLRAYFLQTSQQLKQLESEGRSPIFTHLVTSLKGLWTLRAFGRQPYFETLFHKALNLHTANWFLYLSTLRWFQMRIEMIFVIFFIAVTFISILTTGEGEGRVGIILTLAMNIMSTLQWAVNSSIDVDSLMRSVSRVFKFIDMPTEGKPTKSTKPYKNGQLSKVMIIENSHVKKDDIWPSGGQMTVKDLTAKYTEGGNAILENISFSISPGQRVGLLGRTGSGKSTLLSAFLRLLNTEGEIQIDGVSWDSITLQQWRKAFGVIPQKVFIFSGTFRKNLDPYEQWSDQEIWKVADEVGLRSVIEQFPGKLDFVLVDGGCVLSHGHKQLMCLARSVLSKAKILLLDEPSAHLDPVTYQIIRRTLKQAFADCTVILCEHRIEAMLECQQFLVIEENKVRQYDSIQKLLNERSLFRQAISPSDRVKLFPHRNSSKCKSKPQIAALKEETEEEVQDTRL
T1 sequence (P11142 2-646 limits assumed, stated change not applied): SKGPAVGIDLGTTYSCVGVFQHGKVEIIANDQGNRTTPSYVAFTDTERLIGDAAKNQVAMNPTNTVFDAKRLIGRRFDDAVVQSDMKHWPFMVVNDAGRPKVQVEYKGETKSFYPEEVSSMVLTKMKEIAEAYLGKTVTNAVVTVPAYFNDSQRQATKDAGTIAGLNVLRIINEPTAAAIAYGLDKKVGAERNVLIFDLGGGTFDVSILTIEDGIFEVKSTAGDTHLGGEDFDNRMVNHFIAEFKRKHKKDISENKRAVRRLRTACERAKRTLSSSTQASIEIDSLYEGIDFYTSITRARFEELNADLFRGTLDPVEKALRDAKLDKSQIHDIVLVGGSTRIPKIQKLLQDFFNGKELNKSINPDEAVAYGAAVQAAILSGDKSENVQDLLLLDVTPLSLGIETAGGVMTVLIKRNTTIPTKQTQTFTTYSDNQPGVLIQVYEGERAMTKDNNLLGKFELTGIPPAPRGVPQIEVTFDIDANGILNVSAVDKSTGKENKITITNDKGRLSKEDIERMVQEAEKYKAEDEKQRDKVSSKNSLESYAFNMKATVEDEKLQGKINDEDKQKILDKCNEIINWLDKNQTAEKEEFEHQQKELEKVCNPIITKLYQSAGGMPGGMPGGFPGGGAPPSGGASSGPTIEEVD
Experimental: 5. Immunoprecipitation. Cultured cells were solubilized by incubation for 1 h at 4° C. in RIPA[50 mM Tris-Cl (pH8.0), 150 mM NaCl, 1% Triton X-100 (Bio-Rad or Fisher Scientific), 1% sodium deoxycholate (Sigma), and protease inhibitor cocktail (Sigma; used at 1:1,000 final dilution)]. Solubilized cells were then homogenized by passage 10 times through a 20-gauge needle and cleared by centrifugation at 15,000 g for 20 min at 4° C. Protein concentration was determined using the Bio-Rad DC reagents as above. Polyclonal Hsc70 antiserum was added to the cell lysates (2 μl/250 μg total protein, with equal amounts of protein at equal final concentrations for each condition within an experiment) and incubated at 4° C. over-night with gentle agitation. Immune complexes were captured with protein A-Sepharose 4B (Pharmacia Biotechnologies, Piscataway, N.J.) that had been preabsorbed with BSA for 45 min at 4° C. […]
The decrease in CFTR recovered by immunoprecipitation in proportion to the decrease in Hsc70 is consistent with 4-PBA not directly influencing the binding affinity of CFTR and Hsc70. This was further assessed by immunoprecipitating Hsc70-CFTR complexes from untreated IB3-1 cells either with or without 1 mM 4-PBA added to the RIPA lysis and wash buffers.

CFTR [1] = assay: CFTR immunoblot with anti-CFTR antibody 181 in IB3-1 cells; format: cell-based, human; settings: increasing concentrations of 4-phenylbutyrate (FIG. 14)
Experimental: as §1
Control cells at 37° C. show band B CFTR, but virtually undetectable band C CFTR. These cells as expected show very little Hsp70, the heat shock inducible chaperone. At 27° C., a lower temperature, there is very little Hsp70 as expected, but as expected, there has been induction of band C CFTR.

CFTR [2] = assay: Nasal potential difference in CF patients; format: in vivo, human
Source text: Standard methods for detecting and quantifying electrical potentials from nasal epithelia have been reported. See e.g., Zeitlin, P. L. (2000) in Mol. Therapy 1: 1; Noone, P. G. et al. (2000) in Mol. Therapy 1: 105-114; Caplen, J. J. et al. (1995) Nat. Med. 1: 39-46; Middleton, P. G. (1994) in Eur. Respir. 7: 2050-2056; the disclosures of which are hereby incorporated by reference.
This is consistent with the presence of a functional CFTR in the nasal epithelial cell surface.
FIG. 16D the same individual as in […] 18 days on 4-phenylbutyrate.

CFTR [3] = settings: IB3-1 cells; previously shown (ref. 30); cited from earlier work
[4] = growth medium, 37° C., 5% CO2; previously determined (ref. 30); cited from earlier work
[5] = set-up: fraction of administered 4-PBA excreted as PAG in the urine: unit not given here; settings: cited from earlier work

## O=C(O)CCCc1ccccc1 [4-PBA, 4-phenylbutyric acid]
Hsp70; increasing concentrations of 4-PBA (Example 1)
  expression of Hsp70: did not affect
Hsp70; increasing concentrations of 4-phenylbutyrate (Example 11, FIG. 14)
  Hsp70 expression: induces Hsp70 in a dose-dependent manner
Hsp40
  expression of Hsp40: did not affect
Hdj2
  expression of Hdj-2: did not affect
Hsc70-CFTR complexes
  recovery of Hsc70 and associated CFTR: unaltered
CFTR [1]
  band C CFTR: promotes appearance of band C CFTR
CFTR [2]; CF patient (deltaF508 homozygous), 20 gm daily for 7 days
  nasal potential difference response to low chloride/isoproterenol: induce chloride transport
CFTR [2]; same CF patient after 18 days on 4-phenylbutyrate
  nasal potential difference response to low chloride/isoproterenol: continues to sustain chloride transport
CFTR [3]
  4-PBA concentration leading to increased overall expression and appearance of mature CFTR: > 0.1 mM
[4]
  time for which a constant concentration is maintained under culture conditions: at least 2 days
[5]; in vivo
  fraction of administered 4-PBA excreted as PAG in the urine: Ninety
[5]; then conjugated with glutamine to phenacetylglutamine, excreted in urine (ref. 6)
  in vivo metabolic conversion: rapidly and completely converted by β-oxidation to phenylacetate
